“And” between values parts separate entries of the source, which are not always exact repeats. Identical values can stand only once. Like-named read-outs stand apart in the source and are kept apart here.
Target: T1, MRGPRX4 (Homo sapiens, UniProt Q96LA9)
T1 construct: expressed in transfected cells; host or cells: HEK293T
Assay: IP1 accumulation HTRF assay, MRGPRX4
Type: cell-based
Set-up: key to IP1 Basal / IP1 accumulation with YM (Figure 1c) / response to agonist, MRGPRX4 / IP1 accumulation: % IP1: unstimulated mock-transfected = 0%, fully stimulated MRGPRX4 = 100%
Conditions: for activation at 100 µM / activation at 20 µM / activation at 4 µM / activation at 0.8 µM / activation at […] / activation at 0.032 µM: 2 h, read-out: IP1 accumulation (normalized); for activation at 100 µM: log [nateglinide] (M) -4; for activation at 20 µM: log [nateglinide] (M) -4.69897; for activation at 4 µM: log [nateglinide] (M) -5.39794; for activation at 0.8 µM: log [nateglinide] (M) -6.09691; for activation at […]: log [nateglinide] (M) -6.79588; for activation at 0.032 µM: log [nateglinide] (M) -7.49485; for normalized IP1 accumulation: HA-MRGX4-1D4

[1] = Dox 40 ng/mL, Supplementary Figure 5b
[2] = Dox 40 ng/mL, Supplementary Figure 5c
[3] = Dox 1100 ng/mL, Supplementary Figure 5a
[4] = Dox 1100 ng/mL, Supplementary Figure 5b
[5] = Dox 1100 ng/mL, Supplementary Figure 5c
[6] = Dox 3300 ng/mL, Supplementary Figure 5a
[7] = Dox 3300 ng/mL, Supplementary Figure 5b
[8] = Dox 3300 ng/mL, Supplementary Figure 5c
[9] = MRGPRX4 (2pg), Dox 3300ng/mL, Supplementary Figure 5b
[10] = MRGPRX4, Supplementary Figure 5d-g
[11] = Dox 13 ng/mL, Supplementary Figure 5a
[12] = Dox 13 ng/mL, Supplementary Figure 5c
[13] = Dox 40 ng/mL, Supplementary Figure 5a

T1 sequence (Q96LA9 whole entry): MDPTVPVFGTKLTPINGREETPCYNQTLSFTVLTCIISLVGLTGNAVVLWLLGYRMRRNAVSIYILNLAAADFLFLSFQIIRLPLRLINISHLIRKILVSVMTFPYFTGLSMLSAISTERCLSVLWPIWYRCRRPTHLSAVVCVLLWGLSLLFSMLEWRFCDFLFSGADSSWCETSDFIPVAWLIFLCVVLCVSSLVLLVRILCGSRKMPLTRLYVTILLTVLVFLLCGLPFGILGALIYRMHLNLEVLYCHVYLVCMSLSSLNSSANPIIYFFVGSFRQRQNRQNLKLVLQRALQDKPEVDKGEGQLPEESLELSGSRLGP

SMILES: CC(C)[C@H]1CC[C@H](C(=O)N[C@H](Cc2ccccc2)C(=O)O)CC1 [Nateglinide]
- activation at 100 µM [1]: 17.6%
- activation at 100 µM [2]: 58%
- activation at 100 µM [3]: 97.1%
- activation at 100 µM [4]: 25.8%
- activation at 100 µM [5]: 81.1%
- activation at 100 µM [6]: 100%
- activation at 100 µM [7]: 32.5%
- activation at 100 µM [8]: 100%
- activation at 100 µM [9]: 100%
- activation at 100 µM [10]: 100%
- activation at 100 µM (MRGPRX4 no dox, Supplementary Figure 5d-g): 1.03%
- activation at 100 µM (No Dox, Supplementary Figure 5a): 17%
- activation at 100 µM (No Dox, Supplementary Figure 5c): 17%
- activation at 20 µM [11]: 62.9%
- activation at 20 µM (Dox 13 ng/mL, Supplementary Figure 5b): 6.04%
- activation at 20 µM [12]: 25.4%
- activation at 20 µM [13]: 71.8%
- activation at 20 µM [1]: 8.95%
- activation at 20 µM [2]: 33.6%
- activation at 20 µM [3]: 83.3%
- activation at 20 µM [4]: 17.4%
- activation at 20 µM [5]: 57.5%
- activation at 20 µM [6]: 86.8%
- activation at 20 µM [7]: 23.5%
- activation at 20 µM [8]: 74.7%
- activation at 20 µM [9]: 86.8%
- activation at 20 µM [10]: 96.1%
- activation at 4 µM [11]: 29.5%
- activation at 4 µM [12]: 4.86%
- activation at 4 µM [13]: 32.9%
- activation at 4 µM [2]: 7.47%
- activation at 4 µM [3]: 46.5%
- activation at 4 µM [4]: 4.19%
- activation at 4 µM [5]: 20.2%
- activation at 4 µM [6]: 44%
- activation at 4 µM [7]: 8.69%
- activation at 4 µM [8]: 32.8%
- activation at 4 µM [9]: 44%
- activation at 4 µM [10]: 56.6%
- activation at 0.8 µM [11]: 10.1%
- activation at 0.8 µM [13]: 12.5%
- activation at 0.8 µM [3]: 19.7%
- activation at 0.8 µM [5]: 3.18%
- activation at 0.8 µM [6]: 19.9%
- activation at 0.8 µM [8]: 10.1%
- activation at 0.8 µM [9]: 19.9%
- activation at 0.8 µM [10]: 23.8%
- activation at […] [11]: 5.08%
- activation at […] [13]: 6.44%
- activation at […] [3]: 11.5%
- activation at […] [6]: 11.6%
- activation at […] [8]: 7.74%
- activation at […] [9]: 11.6%
- activation at […] [10]: 11.3%
- activation at 0.032 µM [11]: 4.57%
- activation at 0.032 µM [13]: 5.36%
- activation at 0.032 µM [3]: 10.3%
- activation at 0.032 µM [6]: 10.9%
- activation at 0.032 µM [8]: 3.46%
- activation at 0.032 µM [9]: 10.9%
- activation at 0.032 µM [10]: 13.6%
- efficacy (Figure 4a bottom, MRGPRX4 alone (reference = 100), individual replicates): 100
- Emax (Figure 4a bottom, MRGPRX4 alone (reference = 100), individual replicates, read-out: efficacy): 100%
- EC50 (Figure 4a top, MRGPRX4 alone (no RAMP), individual replicates, read-out: potency (converted)): 7.29 µM and 10.3 µM and 7.1 µM
- response to agonist, MRGPRX4 (Figure 4c-f, agonist 100µM, MRGPRX4 alone (reference = 100)): 100
- normalized IP1 accumulation (log [agonist] (M) -4): 81.552 and 83.6202
- normalized IP1 accumulation (log [agonist] (M) -4.69897): 71.4189 and 62.4618
- normalized IP1 accumulation (log [agonist] (M) -5.39794): 34.1012 and 34.3253
- normalized IP1 accumulation (log [agonist] (M) -6.09691): 18.0339 and 19.9037
- normalized IP1 accumulation (log [agonist] (M) -6.79588): 15.3353 and 14.0745
- normalized IP1 accumulation (log [agonist] (M) -7.49485): 14.2615 and 16.0131
- Emax (HEK-293T, MRGPRX4 (Fig. 1A), HEK293T, normalized to 100 μM nateglinide, read-out: IP1 Emax): 103%
- Emax (HEK-293T, MRGPRX4 (Fig. 1A), HEK293T, normalized to 100 μM nateglinide, read-out: IP1 span): 87.6%
- Emax (MRGPRX4 0.125 pg DNA/cell, individual experiments, read-out: efficacy (Figure 1b bottom)): 77.3%
- EC50 (MRGPRX4 0.125 pg DNA/cell, individual experiments, read-out: potency (Figure 1b top) (converted)): 15.9 µM and 12.3 µM and 12.6 µM
- Emax (MRGPRX4 0.25 pg DNA/cell, individual experiments, read-out: efficacy (Figure 1b bottom)): 81.4%

From paper PMC10165273, “Itch receptor MRGPRX4 interacts with the receptor activity–modifying proteins” (The Journal of Biological Chemistry, 2023)
